Results from patent US5714494A, “Xanthines in the 7th position with a benzyl acetic acid moiety” (Bayer Aktiengesellschaft, priority 1995, dated 1998).

Test system: ApoB-100-associated lipoproteins
Test: Inhibition of the release of ApoB-100-associated lipoproteins from HepG2 cells (immunoassay for human LDL)
Type: cell-based
Conditions: light absorption 450 nm vs solvent control
Method: The test for detecting inhibition of the release of ApoB-100-associated lipoproteins from liver cells was carried out in vitro using cultured liver cells, preferably using cells of the human line HepG2. These cells are grown under standard conditions in medium for the culture of eucaryotic cells, preferably in RPMI 1640 using 10% foetal calf serum. HepG2 cells synthesize and secrete into the culture supernatant ApoB-100-associated lipoprotein particles which in principle are synthesized in a similar manner to the VLDL and LDL particles which are to be found in the plasma.
These particles can be detected using an immunoassay for human LDL. This immunoassay is carried out using antibodies which have been induced in the rabbit against human LDL under standard conditions. The anti-LDL antibodies (rabbit anti-LDL-Ab) were purified by affinity chromatography on an immunosorbent using human LDL. These purified rabbit anti-LDL Ab are adsorbed on the surface of plastic. Expediently, this adsorption is carried out on the plastic surface of microtitre plates having 96 wells, preferably on MaxiSorp plates. If ApoB-100-associated particles are present in the supernatant of Hep-G2 cells, these can bind to the insolubilized rabbit anti-LDL Ab, and an immune complex is formed which is bound to the plastic surface. Unbound proteins are removed by washing. The immune complex located on the plastic surface is detected using monoclonal antibodies which have been induced against human LDL according to standard conditions and purified. These antibodies were conjugated with the enzyme peroxidase. Peroxidase converts the colourless substrate TMB into a coloured product in the presence of H2 O2. After acidification of the reaction mixture using H2 SO4, the specific light absorption at 450 mn is determined, which is a measure of the amount of ApoB-100-associated particles which have been secreted into the culture supernatant by the HepG2 cells.
The IC50 value indicates at which substance concentration the light absorption is inhibited by 50% in comparison with the control (solvent control without substance).

[1] = Homo sapiens, HepG2, HepG2 cells

Compound	IC50 (HepG2 cells) [nM]	IC50 [1] [nM]
Cn1c(=O)c2c(nc(Cc3ccccc3)n2Cc2ccc(C(C(=O)N[C@@H](CO)c3ccccc3)C3CCCC3)cc2)n(C)c1=O (single isomer, unassigned) [Example 170]	16	
Cn1c(=O)c2c(nc(-c3ccsc3)n2Cc2ccc(C(C(=O)N[C@@H](CO)c3ccccc3)C3CCCC3)cc2)n(C)c1=O (single isomer, unassigned) [Example 156]	25	
Cn1c(=O)c2c(nc(C3CCCC3)n2Cc2ccc(C(C(=O)N[C@@H](CO)c3ccccc3)C3CCCC3)cc2)n(C)c1=O (stereo partly drawn) [Example 122]		48
Cn1c(=O)c2c(nc(Cc3cccc(Cl)c3)n2Cc2ccc(C(C(=O)N[C@@H](CO)c3ccccc3)C3CCCC3)cc2)n(C)c1=O (single isomer, unassigned) [Example 193]	62	
Cn1c(=O)c2c(nc(Cc3ccccc3)n2Cc2ccc(C(C(=O)N[C@@H](CO)c3ccccc3)C3CCCCC3)cc2)n(C)c1=O (single isomer, unassigned) [Example 172]		1
Cn1c(=O)c2c(nc(Cc3ccc(-c4ccccc4)cc3)n2Cc2ccc(C(C(=O)N[C@@H](CO)c3ccccc3)C3CCCC3)cc2)n(C)c1=O (stereo partly drawn) [Example 185]		29
Cc1ccccc1-c1nc2c(c(=O)n(C)c(=O)n2C)n1Cc1ccc(C(C(=O)N[C@@H](CO)c2ccccc2)C2CCCC2)cc1 (stereo partly drawn) [Example 132]		743
Cc1ccc(Cc2nc3c(c(=O)n(C)c(=O)n3C)n2Cc2ccc(C(C(=O)N[C@@H](CO)c3ccccc3)C3CCCC3)cc2)cc1 (single isomer, unassigned) [Example 184]	24	
Cn1c(=O)c2c(nc(-c3cccs3)n2Cc2ccc(C(C(=O)N[C@@H](CO)c3ccccc3)C3CCCC3)cc2)n(C)c1=O (single isomer, unassigned) [Example 158]	2	
CCc1nc2c(c(=O)n(C)c(=O)n2C)n1Cc1ccc(C(C(=O)N[C@@H](CO)c2ccccc2)C2CCCC2)cc1 (stereo partly drawn) [Example 120]		28
Cn1c(=O)c2c(nc(Cc3cccc(Cl)c3)n2Cc2ccc(C(C(=O)N[C@@H](CO)c3ccccc3)C3CCCC3)cc2)n(C)c1=O (single isomer, unassigned) [Example 192]	8	
Cn1c(=O)c2c(nc(Cc3ccccc3)n2Cc2ccc(C(C(=O)N[C@@H](CO)c3ccccc3)C3CCCC3)cc2)n(C)c1=O (stereo partly drawn) [Example 168]		16
Cc1ccc(-c2nc3c(c(=O)n(C)c(=O)n3C)n2Cc2ccc(C(C(=O)N[C@@H](CO)c3ccccc3)C3CCCC3)cc2)s1 (stereo partly drawn) [Example 163]		131
Cc1cccc(Cc2nc3c(c(=O)n(C)c(=O)n3C)n2Cc2ccc(C(C(=O)N[C@@H](CO)c3ccccc3)C3CCCC3)cc2)c1 (single isomer, unassigned) [Example 180]		5
Cc1ccc(-c2nc3c(c(=O)n(C)c(=O)n3C)n2Cc2ccc(C(C(=O)N[C@@H](CO)c3ccccc3)C3CCCC3)cc2)cc1 (single isomer, unassigned) [Example 137]	124	
Cn1c(=O)c2c(ncn2Cc2ccc(C(C(=O)N[C@@H](CO)c3ccccc3)C3CCCC3)cc2)n(C)c1=O (single isomer, unassigned) [Example 115]	240	
Cc1ccc(Cc2nc3c(c(=O)n(C)c(=O)n3C)n2Cc2ccc(C(C(=O)N[C@@H](CO)c3ccccc3)C3CCCC3)cc2)cc1 (single isomer, unassigned) [Example 183]	10	
Cn1c(=O)c2c(nc(Cc3ccccc3Cl)n2Cc2ccc(C(C(=O)N[C@@H](CO)c3ccccc3)C3CCCC3)cc2)n(C)c1=O (stereo partly drawn) [Example 188]		23
Cn1c(=O)c2c(nc(-c3ccccc3)n2Cc2ccc(C(C(=O)N[C@@H](CO)c3ccccc3)C3CCCC3)cc2)n(C)c1=O (single isomer, unassigned) [Example 131]	135	
Cc1nc2c(c(=O)n(C)c(=O)n2C)n1Cc1ccc(C(C(=O)N[C@@H](CO)c2ccccc2)C2CCCC2)cc1 (stereo partly drawn) [Example 119]		11
Cn1c(=O)c2c(nc(-c3ccc(-c4ccccc4)cc3)n2Cc2ccc(C(C(=O)N[C@@H](CO)c3ccccc3)C3CCCC3)cc2)n(C)c1=O (stereo partly drawn) [Example 139]		90
Cn1c(=O)c2c(nc(Cc3ccccc3Cl)n2Cc2ccc(C(C(=O)N[C@@H](CO)c3ccccc3)C3CCCC3)cc2)n(C)c1=O (single isomer, unassigned) [Example 189]	31	
Cn1c(=O)c2c(nc(-c3cccnc3)n2Cc2ccc(C(C(=O)N[C@@H](CO)c3ccccc3)C3CCCC3)cc2)n(C)c1=O (stereo partly drawn) [Example 152]		169
Cn1c(=O)c2c(nc(Cc3cccs3)n2Cc2ccc(C(C(=O)N[C@@H](CO)c3ccccc3)C3CCCC3)cc2)n(C)c1=O (stereo partly drawn) [Example 126]		41
Cn1c(=O)c2c(nc(Cc3ccc(F)cc3)n2Cc2ccc(C(C(=O)N[C@@H](CO)c3ccccc3)C3CCCC3)cc2)n(C)c1=O (single isomer, unassigned) [Example 195]	5	
Cn1c(=O)c2c(nc(-c3ccsc3)n2Cc2ccc(C(C(=O)N[C@@H](CO)c3ccccc3)C3CCCC3)cc2)n(C)c1=O (single isomer, unassigned) [Example 155]	2	
Cn1c(=O)c2c(nc(C3CC3)n2Cc2ccc(C(C(=O)N[C@@H](CO)c3ccccc3)C3CCCC3)cc2)n(C)c1=O (stereo partly drawn) [Example 121]		36
Cn1c(=O)c2c(ncn2Cc2ccc(C(C(=O)N[C@@H](CO)c3ccccc3)C3CCCC3)cc2)n(C)c1=O (stereo partly drawn) [Example 113]		58
Cn1c(=O)c2c(nc(Cc3ccc(F)cc3)n2Cc2ccc(C(C(=O)N[C@@H](CO)c3ccccc3)C3CCCC3)cc2)n(C)c1=O (stereo partly drawn) [Example 194]		8
Cc1cccc(Cc2nc3c(c(=O)n(C)c(=O)n3C)n2Cc2ccc(C(C(=O)N[C@@H](CO)c3ccccc3)C3CCCC3)cc2)c1 (single isomer, unassigned) [Example 181]	10	

Continued, values first:

IC50 (HepG2 cells) [nM]	IC50 [1] [nM]	Compound
	4	CCc1nc2c(c(=O)n(C)c(=S)n2C)n1Cc1ccc(C(C(=O)N[C@@H](CO)c2ccccc2)C2CCCC2)cc1 (stereo partly drawn) [Example 224]
	5	CCn1c(=O)c2c(nc(-c3cccs3)n2Cc2ccc(C(C(=O)N[C@@H](CO)c3ccccc3)C3CCCC3)cc2)n(CC)c1=O (stereo partly drawn) [Example 219]
	5	COc1cccc(Cc2nc3c(c(=O)n(C)c(=O)n3C)n2Cc2ccc(C(C(=O)N[C@@H](CO)c3ccccc3)C3CCCC3)cc2)c1 (stereo partly drawn) [Example 198]
	8	CCn1c(=O)c2c(nc(-c3ccc(C)cc3)n2Cc2ccc(C(C(=O)N[C@@H](CO)c3ccccc3)C3CCCC3)cc2)n(CC)c1=O (stereo partly drawn) [Example 218]
	11	CCn1c(=O)c2c(nc(-c3ccccc3)n2Cc2ccc(C(C(=O)N[C@@H](CO)c3ccccc3)C3CCCC3)cc2)n(CC)c1=O (stereo partly drawn) [Example 217]
	34	CCn1c(=O)c2c(nc(C3CC3)n2Cc2ccc(C(C(=O)N[C@@H](CO)c3ccccc3)C3CCCC3)cc2)n(CC)c1=O (stereo partly drawn) [Example 216]
61		Cn1c(=O)c2c(nc(Cc3ccc(F)cc3)n2Cc2ccc(C(C(=O)N[C@@H](CO)c3ccccc3)C3CCCC3)cc2)n(C)c1=O (single isomer, unassigned) [Example 196]
	4	Cc1nc2c(c(=O)n(C)c(=S)n2C)n1Cc1ccc(C(C(=O)N[C@@H](CO)c2ccccc2)C2CCCC2)cc1 (stereo partly drawn) [Example 223]
	11	Cc1ccc(-c2nc3c(c(=O)n(C)c(=S)n3C)n2Cc2ccc(C(C(=O)N[C@@H](CO)c3ccccc3)C3CCCC3)cc2)cc1 (stereo partly drawn) [Example 226]
	40	Cn1c(=O)c2c(nc(Cc3cccc(O)c3)n2Cc2ccc(C(C(=O)N[C@@H](CO)c3ccccc3)C3CCCC3)cc2)n(C)c1=O (stereo partly drawn) [Example 207]
24		COc1cccc(Cc2nc3c(c(=O)n(C)c(=O)n3C)n2Cc2ccc(C(C(=O)N[C@@H](CO)c3ccccc3)C3CCCC3)cc2)c1 (single isomer, unassigned) [Example 200]
	8	CCn1c(=O)c2c(ncn2Cc2ccc(C(C(=O)N[C@@H](CO)c3ccccc3)C3CCCC3)cc2)n(CC)c1=O (single isomer, unassigned) [Example 212]
	9	CCn1c(=O)c2c(ncn2Cc2ccc(C(C(=O)N[C@@H](CO)c3ccccc3)C3CCCC3)cc2)n(CC)c1=O (stereo partly drawn) [Example 211]
	16	Cn1c(=O)c2c(nc(Cc3ccccc3O)n2Cc2ccc(C(C(=O)N[C@@H](CO)c3ccccc3)C3CCCC3)cc2)n(C)c1=O (stereo partly drawn) [Example 204]
63		COc1ccc(Cc2nc3c(c(=O)n(C)c(=O)n3C)n2Cc2ccc(C(C(=O)N[C@@H](CO)c3ccccc3)C3CCCC3)cc2)cc1 (single isomer, unassigned) [Example 203]
9		COc1ccc(Cc2nc3c(c(=O)n(C)c(=O)n3C)n2Cc2ccc(C(C(=O)N[C@@H](CO)c3ccccc3)C3CCCC3)cc2)cc1 (single isomer, unassigned) [Example 202]
	4	Cn1c(=O)c2c(nc(-c3cccs3)n2Cc2ccc(C(C(=O)N[C@@H](CO)c3ccccc3)C3CCCC3)cc2)n(C)c1=S (stereo partly drawn) [Example 225]
5		COc1cccc(Cc2nc3c(c(=O)n(C)c(=O)n3C)n2Cc2ccc(C(C(=O)N[C@@H](CO)c3ccccc3)C3CCCC3)cc2)c1 (single isomer, unassigned) [Example 199]
